We go through 37 molecules from ChEMBL document CHEMBL4483862, “Open-source discovery of chemical leads for next-generation chemoprotective antimalarials” (2018).

SMILES strings stand for the structures.

For the test, the system named is Plasmodium berghei. As to the kind of experiment: Luciferase/luciferin-expressing antifolate-resistant parasites were used to infect a culture of HepG2 cells that were pre-incubated with compounds. Infected hepatocytes emit light due to the luciferase reaction. Assay results are presented as the percent inhibition of light emission compared to control. […]. Format: functional. The following applies: sporozoite; for IC90: read-out: LUCIFERASE INFECTION ASSAY - IC90.

[1] abbreviates: read-out: LUCIFERASE INFECTION ASSAY - IC50.

For the molecule `O=C(O)Cc1csc(-c2cc(Br)cs2)n1`, the IC90 is > 10 µM. Further, under setting [1], the IC50 is > 10 µM.

With `O=C(Nc1cccc(-c2nc3ccccc3[nH]2)c1)c1cccc(S(=O)(=O)N2CCCC2)c1`, the IC90 was > 10 µM. Moreover, the IC50 under setting [1] was > 10 µM.

Turning to `Cc1ccnc(NC(=O)Cc2cnn(-c3ccccc3)c2)c1`, the IC90 was 9.95 µM. Further, the half-inhibitory concentration (IC50) (HEPG2TOX_HILL_SLOPE 17.5, HEPG2TOX_R_SQUARED 0.943, PBLUC_HILL_SLOPE 16.3, PBLUC_R_SQUARED 0.0531, read-out: LUCIFERASE INFECTION ASSAY - IC50) stood at 8.7 µM.

For `COC(=O)c1sccc1Oc1ccc(C(F)(F)F)cc1NC(=O)Nc1c(Cl)cc(Cl)cc1Cl`, the IC90 is > 6.11 µM. Further, the IC50 under setting [1] is > 6.11 µM.

On to `Cc1nn(C)c2nc(-c3cccs3)cc(C(=O)Nc3ccccc3C(=O)NCC3CCCO3)c12` (centres undefined), for which the IC90 is > 10 µM. Further, under “PBLUC_HILL_SLOPE 3.11, PBLUC_R_SQUARED 0.411, read-out: LUCIFERASE INFECTION ASSAY - IC50”, the IC50 is 5.11 µM.

`CNc1snc(C)c1C(=O)N(C)Cc1ccc(F)cc1F`: the IC90 came out at 4.37 µM. Where the note is “PBLUC_HILL_SLOPE 10.5, PBLUC_R_SQUARED 0.526, read-out: LUCIFERASE INFECTION ASSAY - IC50”, the IC50 was 3.55 µM.

For the molecule `NS(=O)(=O)c1ccc(S(=O)(=O)N2CCCN(Cc3ccc(C(F)(F)F)cc3)CC2)cc1`, the concentration for an effect of 90% (IC90) is > 10 µM. Moreover, under “HEPG2TOX_HILL_SLOPE 4.06, HEPG2TOX_R_SQUARED 0.95, PBLUC_HILL_SLOPE 2.74, PBLUC_R_SQUARED 0.121, read-out: LUCIFERASE INFECTION ASSAY - IC50”, the IC50 turned out to be 6.92 µM.

With `CC(C)c1ccc(Nc2ccn3ncc(-c4cccc(N)c4)c3n2)cc1`, the IC90 was > 9.61 µM. Moreover, where the note is “HEPG2TOX_HILL_SLOPE 3.91, HEPG2TOX_R_SQUARED 0.953, PBLUC_HILL_SLOPE 9.39, PBLUC_R_SQUARED 0.444, read-out: LUCIFERASE INFECTION ASSAY - IC50”, the IC50 was found to be 8 µM.

Regarding `Cc1ccc(C(C#N)c2ccc(NN)nn2)cc1` (centres undefined), the IC90 was > 13.8 µM. Under “FFLUC_HILL_SLOPE 3.94, FFLUC_R_SQUARED 0.836, read-out: LUCIFERASE INFECTION ASSAY - IC50”, the IC50 is > 13.8 µM.

`CCOC(=O)/C(=C\c1cccc(F)c1)C1=Nn2c(nnc2-c2ccc(OC)cc2)SC1`: the IC90 stood at 6.43 µM. Further, the IC50 (HEPG2TOX_HILL_SLOPE 19.5, HEPG2TOX_R_SQUARED 0.849, PBLUC_HILL_SLOPE 122, PBLUC_R_SQUARED 0.536, read-out: LUCIFERASE INFECTION ASSAY - IC50) came out at 6.31 µM.

As to `O=C(c1cccc(-c2cccnc2)c1)c1cnc(Nc2ccccc2)[nH]1`, the IC90 was found to be 9.25 µM. The half-maximal inhibitory concentration (IC50) (HEPG2TOX_HILL_SLOPE 16.4, HEPG2TOX_R_SQUARED 0.215, PBLUC_HILL_SLOPE 5.04, PBLUC_R_SQUARED 0.615, read-out: LUCIFERASE INFECTION ASSAY - IC50) worked out at 5.98 µM.

For the molecule `Cn1cc(-c2cn3c(-c4ccc(C(C)(C)C)cc4)cnc3cn2)cn1`, the IC90 was > 9.96 µM. Besides, the IC50 (PBLUC_HILL_SLOPE 3.33, PBLUC_R_SQUARED 0.519, read-out: LUCIFERASE INFECTION ASSAY - IC50) stood at 6.79 µM.

`CCOC(=O)C1=C(Cn2ccnc2)NC(=O)NC1CC` (centres undefined): the IC90 was > 10 µM. Further, the IC50 under setting [1] is > 10 µM.

Take `CNc1snc(C)c1C(=O)N(C)Cc1ccc(C(C)C)cc1`: the IC90 came to 0.0634 µM. Also, the IC50 (HEPG2TOX_HILL_SLOPE 3.83, HEPG2TOX_R_SQUARED 0.742, PBLUC_HILL_SLOPE 1.58, PBLUC_R_SQUARED 0.865, read-out: LUCIFERASE INFECTION ASSAY - IC50) came to 0.0158 µM.

As for `Nc1ncc(-c2ccc(-c3ccccc3)cc2F)cc1-c1cncc2ccccc12`, the IC90 was > 8.43 µM. In addition, the IC50 (PBLUC_HILL_SLOPE 1.93, PBLUC_R_SQUARED 0.0355, read-out: LUCIFERASE INFECTION ASSAY - IC50) is > 8.43 µM.

In the case of `O=C(Nc1nc2ccccn2c1C(=O)NC1CCCCC1)c1ccc(F)c(F)c1`, the IC90 was > 8.28 µM. Also, where the note is “PBLUC_HILL_SLOPE 13.4, PBLUC_R_SQUARED 0.0564, read-out: LUCIFERASE INFECTION ASSAY - IC50”, the half-inhibitory concentration (IC50) turned out to be 7.37 µM.

For the molecule `CCCn1c(NC(=O)C2CCN(c3ccc4nnc(C(F)(F)F)n4n3)CC2)nc2ccccc21`, the IC90 is > 10 µM. The IC50 under setting [1] was 6.49 µM.

For the molecule `COc1cccc(-c2cnn3ccc(Nc4cc(OC)c(OC)c(OC)c4)nc23)c1`, the IC90 came out at 3.34 µM. Besides, where the note is “HEPG2TOX_HILL_SLOPE 6.32, HEPG2TOX_R_SQUARED 0.972, PBLUC_HILL_SLOPE 10.3, PBLUC_R_SQUARED 0.636, read-out: LUCIFERASE INFECTION ASSAY - IC50”, the IC50 worked out at 2.7 µM.

For the molecule `CCN(CC)S(=O)(=O)c1cccc(-c2nnc(SCC(=O)N3CCC(c4ccccc4)=N3)n2Cc2ccccc2)c1`, the IC90 is > 10 µM. Also, for the setting “FFLUC_HILL_SLOPE 11.4, FFLUC_R_SQUARED 0.285, PBLUC_HILL_SLOPE 0.735, PBLUC_R_SQUARED 0.117, read-out: LUCIFERASE INFECTION ASSAY - IC50”, the IC50 is > 10 µM.

`CNc1nc2cnc(-c3ccc(F)cc3)cc2n1Cc1ccc(OC)c(OC)c1`: the IC90 turned out to be 3.97 µM. The IC50 (PBLUC_HILL_SLOPE 14.4, PBLUC_R_SQUARED 0.339, read-out: LUCIFERASE INFECTION ASSAY - IC50) amounted to 3.41 µM.

As for `N=C(N)N/N=C/c1ccc(Cl)cc1Cl`, the IC90 amounted to 5.8 µM. The IC50 (HEPG2TOX_HILL_SLOPE 3.43, HEPG2TOX_R_SQUARED 0.626, PBLUC_HILL_SLOPE 2.34, PBLUC_R_SQUARED 0.812, read-out: LUCIFERASE INFECTION ASSAY - IC50) was found to be 2.27 µM.

As to `Cc1cccc(-c2cn3c(-c4cccc(O)c4)cnc3cn2)c1C`, the IC90 was > 10.5 µM. The IC50 (PBLUC_HILL_SLOPE 4.97, PBLUC_R_SQUARED 0.533, read-out: LUCIFERASE INFECTION ASSAY - IC50) worked out at 8.4 µM.

Consider `O=C1Nc2ccc([N+](=O)[O-])cc2C1=C(c1nc2ccccc2s1)c1nc2ccccc2s1`, for which the IC90 is > 10 µM. Besides, under “FFLUC_HILL_SLOPE 9.66, FFLUC_R_SQUARED 0.665, read-out: LUCIFERASE INFECTION ASSAY - IC50”, the concentration for half-maximal inhibition (IC50) was > 10 µM.

Take `C/C(=N\OCc1ccccc1)c1cc(-c2ccccc2)c(C(F)(F)F)s1`: the IC90 was > 8.79 µM. Besides, under “PBLUC_HILL_SLOPE 1.7, PBLUC_R_SQUARED 0.604, read-out: LUCIFERASE INFECTION ASSAY - IC50”, the IC50 worked out at 4.91 µM.

Regarding `Oc1cccc(-c2cnc3cnc(-c4ccc(Cl)cc4)cn23)c1`, the IC90 is > 10.3 µM. In addition, where the note is “HEPG2TOX_HILL_SLOPE 0.659, HEPG2TOX_R_SQUARED 0.949, PBLUC_HILL_SLOPE 0.784, PBLUC_R_SQUARED 0.857, read-out: LUCIFERASE INFECTION ASSAY - IC50”, the IC50 amounted to 1.55 µM.

Regarding `O=C(c1[nH]nc2ccccc12)N1CCN(S(=O)(=O)c2cccs2)CC1`, the IC90 is > 10 µM. For the same molecule, the concentration for half-maximal inhibition (IC50) (PBLUC_HILL_SLOPE 2.58, PBLUC_R_SQUARED 0.457, read-out: LUCIFERASE INFECTION ASSAY - IC50) turned out to be 7.61 µM.

Consider `COc1ccc(/C=C/C(=O)N2CCCC2c2cccs2)cc1S(=O)(=O)N1CCCCC1` (centres undefined), for which the IC90 was > 10 µM. Also, the IC50 under setting [1] was > 10 µM.

Turning to `CN(CC(=O)N1CCN(C(c2ccc(F)cc2)c2ccc(F)cc2)CC1)C1=NS(=O)(=O)c2ccccc21`, the 90% effect concentration (IC90) is > 10 µM. Also, the IC50 under setting [1] was > 10 µM.

Turning to `CCOc1cccc2cc(C(C)Nc3ncnc4n[nH]cc34)oc12` (centres undefined), the concentration for an effect of 90% (IC90) was found to be 6.49 µM. For the setting “HEPG2TOX_HILL_SLOPE 1.82, HEPG2TOX_R_SQUARED 0.969, PBLUC_HILL_SLOPE 2.94, PBLUC_R_SQUARED 0.376, read-out: LUCIFERASE INFECTION ASSAY - IC50”, the IC50 amounted to 3.07 µM.

For the molecule `O=C(NNC(=O)c1csnn1)c1ccc(C(F)(F)F)cc1`, the concentration for an effect of 90% (IC90) was 1.19 µM. Besides, the IC50 (PBLUC_HILL_SLOPE 3.95, PBLUC_R_SQUARED 0.658, read-out: LUCIFERASE INFECTION ASSAY - IC50) came to 0.684 µM.

Turning to `CCOC(=O)N1CCC(Nc2ncnc3c2oc2ccccc23)CC1`, the IC90 was > 10 µM. Besides, under “PBLUC_HILL_SLOPE 2.64, PBLUC_R_SQUARED 0.787, read-out: LUCIFERASE INFECTION ASSAY - IC50”, the IC50 was 6.72 µM.

For `CCOC(=O)N1CCN(CC(O)COc2ccc3oc4ccccc4c3c2)CC1` (centres undefined), the IC90 was > 10 µM. Besides, the IC50 under setting [1] was > 10 µM.

Regarding `CCOC(=O)c1c(NC(=O)CSc2ncnc3scc(-c4ccc(OC)cc4)c23)sc2c1CCCC2`, the 90% effect concentration (IC90) is > 10 µM. Moreover, the IC50 (HEPG2TOX_HILL_SLOPE 1.83, HEPG2TOX_R_SQUARED 0.223, read-out: LUCIFERASE INFECTION ASSAY - IC50) is > 10 µM.

As for `O=C(NCC#Cc1cccc(C(F)(F)F)c1)c1[nH]nc2ccccc12`, the IC90 was > 10 µM. The IC50 (FFLUC_HILL_SLOPE 1.72, FFLUC_R_SQUARED 0.47, read-out: LUCIFERASE INFECTION ASSAY - IC50) is > 10 µM.

Take `CCOc1ccc(CN(C)c2ncnc3sc(C)c(C)c23)cc1OC`: the IC90 came to 3.65 µM. Further, under “HEPG2TOX_HILL_SLOPE 1.19, HEPG2TOX_R_SQUARED 0.971, PBLUC_HILL_SLOPE 15.4, PBLUC_R_SQUARED 0.0404, read-out: LUCIFERASE INFECTION ASSAY - IC50”, the IC50 is 3.16 µM.

Take `O=C(NC(=O)N1CCc2c([nH]c3ccccc23)C1C(F)(F)F)c1ccccc1` (centres undefined): the IC90 was > 8.52 µM. Under setting [1], the IC50 is > 8.52 µM.

For `CC(OC(=O)c1n[nH]c(=O)c2ccccc12)C(=O)N(CCC#N)c1ccccc1` (centres undefined), the IC90 was > 10 µM. The IC50 under setting [1] is > 10 µM.

A word on the IC50: it is the midpoint of a concentration-inhibition curve. One may read the IC90 as the concentration at which the effect reaches the 90% level.
